Consider 6 compounds from US20220364989A1, “METHOD FOR MEASURING PHOTOTOXICITY OR PHOTOALLERGY AND REAGENT FOR USE THEREIN” (FUJIFILM Corporation, priority 2018, published 2022).

Like-named read-outs stand apart in the source and are kept apart here.

For data set [1] the following is noted: cited from earlier work.
For data set [2] the following is noted: in vivo; cited from earlier work.
The nature of data set [3]: Average score of NAC and NAL depletion and phototoxicity or photoallergy determination, fluorescence detection.
Data set [4] is described as follows: Average score of NAC and NAL depletion and phototoxicity or photoallergy determination, UV detection. To be noted: for Average score (%): single compound.
Data set [5] can be described thus: NAC depletion under and without ultraviolet irradiation, HPLC with fluorescence detection (284 nm excitation, 333 nm fluorescence). To be noted: for NAC Depletion (%) without light irradiation / NAC Depletion (%): without light irradiation.
The nature of data set [6]: NAC depletion under and without ultraviolet irradiation, HPLC with UV detection (281 nm).
The nature of data set [7]: NAL depletion under and without ultraviolet irradiation, HPLC with fluorescence detection (284 nm excitation, 333 nm fluorescence). To be noted: for NAL Depletion (%) without light irradiation / NAL Depletion (%): without light irradiation.
Data set [8] in a line: NAL depletion under and without ultraviolet irradiation, HPLC with UV detection (281 nm).
[9] abbreviates: photoallergic compound concentration 0.2 mg/mL.
The mark [10] stands for this setting: photoallergic compound concentration 0.5 mg/mL.
Setting [11] is: photoallergic compound concentration 0.05 mg/mL.
The mark [12] stands for this setting: under light irradiation, photoallergic compound concentration 0.2 mg/mL.
Where [13] appears, read: under light irradiation, photoallergic compound concentration 0.5 mg/mL.
Where [14] appears, read: without light irradiation, photoallergic compound concentration 0.05 mg/mL.
[15] abbreviates: without light irradiation, photoallergic compound concentration 0.2 mg/mL.
Setting [16] is: without light irradiation, photoallergic compound concentration 0.5 mg/mL.
Where [17] appears, read: under light irradiation, photoallergic compound concentration 0.05 mg/mL.
Setting [18] is: 25° C. 24 hours light-shielded, test substance solution 1 mmol/L.
[19] abbreviates: 2,000 μW/cm^2 for 1 hour then 25° C. 23 hours, test substance solution 1 mmol/L.
[20] abbreviates: without light irradiation, single compound.
[21] abbreviates: average of NAC and NAL depletion.

As to `CC(O)CO` (racemic) [No. 54, Propylene glycol], in data set [1] (in vivo), the In vivo photoallergy entry is on record as “Negative”. Also, the In vivo phototoxicity result in data set [2] is reported as “Negative”. Also, the “Average score (%)” value in data set [3] (under light irradiation, single compound) was 0.3%; in data set [4] (under light irradiation), 0.1%.

Take `Nc1ccc(S(N)(=O)=O)cc1` [3-4, Sulfanilamide]: the “Difference in depletion (under light irradiation - without light irradiation) NAC (%)” value was found to be 49.9% in data set [5] (setting [9]), 78.2% in data set [5] (setting [10]), 51.3% in data set [6] (setting [9]) and 79.4% in data set [6] (setting [10]). The “NAC Depletion (%) under light irradiation” value in data set [5] (setting [9]) is 49.9%; in data set [5] (setting [10]), 78.2%; in data set [6] (setting [12]), 51.3%; in data set [6] (setting [13]), 79.4%. Further, the “NAC Depletion (%) without light irradiation” value in data set [5] (setting [11]), in data set [5] (setting [9]), in data set [5] (setting [10]), in data set [6] (setting [14]), in data set [6] (setting [15]) and in data set [6] (setting [16]) was 0.0% throughout. Besides, the “Difference in depletion (under light irradiation - without light irradiation) Average score (%)” value in data set [3] (setting [11]) was 11.8%; in data set [3] (setting [10]), 40.6%; in data set [4] (setting [11]) it was 10.2%; in data set [4] (setting [10]), 39.7%. For the same compound, the “Average score (%) under light irradiation” value in data set [3] (setting [17]) was 11.8%; in data set [3] (setting [13]), 40.6%; in data set [4] (setting [17]), 10.2%; in data set [4] (setting [13]) it was 39.7%. Also, the “Average score (%) without light irradiation” value in data set [3] (setting [14]), in data set [3] (setting [15]), in data set [3] (setting [16]), in data set [4] (setting [14]), in data set [4] (setting [15]) and in data set [4] (setting [16]) was 0.0% in each case. In addition, the “Difference in depletion (under light irradiation - without light irradiation) NAL (%)” value in data set [7] (setting [11]) is on record as 2.4%; in data set [7] (setting [9]), 1.8%; in data set [7] (setting [10]), 3.1%; in data set [8] (setting [11]), 0.0%; in data set [8] (setting [9]) it was 0.3%; in data set [8] (setting [10]), 0.0%. The “NAL Depletion (%) under light irradiation” value in data set [7] (setting [11]) stood at 2.4%; in data set [7] (setting [9]), 1.8%; in data set [7] (setting [10]), 3.1%; in data set [8] (setting [17]), 0.0%; in data set [8] (setting [12]), 0.3%; in data set [8] (setting [13]) it was 0.0%. Besides, the “NAL Depletion (%) without light irradiation” value in data set [7] (setting [11]), in data set [7] (setting [9]), in data set [7] (setting [10]), in data set [8] (setting [14]), in data set [8] (setting [15]) and in data set [8] (setting [16]) was 0.0% in each case.

In the case of `C[S+](C)[O-]` [No. 58, Dimethyl sulfoxide], the In vivo photoallergy result in data set [1] (in vivo) was “Negative”. Besides, in data set [2], the In vivo phototoxicity entry is “Negative”. Further, the “Average score (%)” value in data set [4] (under light irradiation) is listed as 0.4%.

With `[Na+].[O-][n+]1ccccc1[S-]` [compound 26], in data set [5] (single compound), the “Difference in depletion (under light irradiation - without light irradiation) NAC (%)” value came out at 91.6% and the “NAC Depletion (%)” value was determined as 8.4%. In data set [1] (reported in References 1 and 2), the In vivo photoallergy entry is given as “Positive”. For the same compound, in data set [6], the “Difference in depletion (under light irradiation - without light irradiation) NAC (%)” value came out at 89.3%. For the same compound, the “NAC Depletion (%) without light irradiation” value in data set [6] (setting [18]) is 10.7%. Further, in data set [6] (setting [19]), the “NAC Depletion (%) under light irradiation” value is 100.0%. Moreover, the “Difference in depletion (under light irradiation - without light irradiation) Average score (%)” value in data set [3] (single compound) is reported as 52.4%. Besides, the “Average score (%)” value in data set [3] (setting [20]) worked out at 4.2%. In data set [7] (single compound), the “Difference in depletion (under light irradiation - without light irradiation) NAL (%)” value is recorded as 13.3% and the “NAL Depletion (%)” value was 0.0%. The “Average score (%) under light irradiation” value in data set [4] (setting [21]) amounted to 61.0%. The “NAL Depletion (%) without light irradiation” value in data set [8] (setting [18]) is on record as −34.1%. Further, the “NAL Depletion (%) under light irradiation” value in data set [8] (setting [19]) is 21.9%.

On to `CC(O)CCO` (stereo not drawn) [compound 46], for which, in data set [5] (single compound), the “Difference in depletion (under light irradiation - without light irradiation) NAC (%)” value worked out at 0.2% and the “NAC Depletion (%)” value is recorded as 0.0%. In data set [6], the “Difference in depletion (under light irradiation - without light irradiation) NAC (%)” value is on record as 0.7%. Moreover, in data set [6] (setting [18]), the “NAC Depletion (%) without light irradiation” value came out at 0.0%. Besides, the “NAC Depletion (%) under light irradiation” value in data set [6] (setting [19]) was determined as 0.7%. Besides, the “Difference in depletion (under light irradiation - without light irradiation) Average score (%)” value in data set [3] (single compound) was 0.1%. Also, the “Average score (%)” value in data set [3] (setting [20]) worked out at 0.1%. For the same compound, in data set [7] (single compound), the “Difference in depletion (under light irradiation - without light irradiation) NAL (%)” value is −0.1% and the “NAL Depletion (%)” value was determined as 0.1%. Moreover, the “Difference in depletion (under light irradiation - without light irradiation) Average score (%)” value in data set [4] is on record as 0.4%. For the same compound, in data set [4] (setting [21]), the “Average score (%) under light irradiation” value is given as 0.4% and the “Average score (%) without light irradiation” value is listed as 0.0%. For the same compound, the “Difference in depletion (under light irradiation - without light irradiation) NAL (%)” value in data set [8] is reported as 0.0%. Moreover, the “NAL Depletion (%) without light irradiation” value in data set [8] (setting [18]) is given as 0.0%. The “NAL Depletion (%) under light irradiation” value in data set [8] (setting [19]) is recorded as 0.0%.

Consider Tetrachlorosalicylanilide [1-4], for which the “Difference in depletion (under light irradiation - without light irradiation) NAC (%)” value in data set [5] (setting [11]) came to 76.5%; in data set [5] (setting [9]) it was 45.3%; in data set [5] (setting [10]), 21.5%. The “NAC Depletion (%) under light irradiation” value in data set [5] (setting [11]) is on record as 98.2%; in data set [5] (setting [9]) it was 97.5%; in data set [5] (setting [10]) it was 97.2%; in data set [6] (setting [17]), “(58.0) %”; in data set [6] (setting [12]) it was “(−96.9) %”; in data set [6] (setting [13]), “(−338.2) %”. Besides, the “NAC Depletion (%) without light irradiation” value in data set [5] (setting [11]) is 21.7%; in data set [5] (setting [9]), 52.2%; in data set [5] (setting [10]) it was 75.6%; in data set [6] (setting [14]), 34.2%; in data set [6] (setting [15]), 70.1%; in data set [6] (setting [16]) it was 93.7%. The “Difference in depletion (under light irradiation - without light irradiation) Average score (%)” value in data set [3] (setting [11]) was determined as 54.5%; in data set [3] (setting [9]) it was 58.9%; in data set [3] (setting [10]), 54.3%. The “Average score (%) under light irradiation” value in data set [3] (setting [17]) is reported as 65.4%; in data set [3] (setting [12]) it was 85.2%; in data set [3] (setting [13]), 93.0%; in data set [4] (setting [17]) it was 44.0%; in data set [4] (setting [12]), −14.9%; in data set [4] (setting [13]) it was −128.5%. The “Average score (%) without light irradiation” value came out at 10.9% in data set [3] (setting [14]); 26.2% in data set [3] (setting [15]); 38.7% in data set [3] (setting [16]); 17.0% in data set [4] (setting [14]); 35.4% in data set [4] (setting [15]); 48.2% in data set [4] (setting [16]). The “Difference in depletion (under light irradiation - without light irradiation) NAL (%)” value in data set [7] (setting [11]) turned out to be 32.5%; in data set [7] (setting [9]) it was 72.6%; in data set [7] (setting [10]), 87.1%; in data set [8] (setting [11]) it was 30.3%; in data set [8] (setting [9]) it was 66.5%; in data set [8] (setting [10]), 78.7%. The “NAL Depletion (%) under light irradiation” value in data set [7] (setting [11]) is recorded as 32.5%; in data set [7] (setting [9]) it was 72.9%; in data set [7] (setting [10]), 88.9%; in data set [8] (setting [17]), 30.1%; in data set [8] (setting [12]) it was 67.1%; in data set [8] (setting [13]) it was “(81.3) %”. Moreover, the “NAL Depletion (%) without light irradiation” value in data set [7] (setting [11]) is on record as 0.0%; in data set [7] (setting [9]), 0.2%; in data set [7] (setting [10]), 1.8%; in data set [8] (setting [14]), −0.2%; in data set [8] (setting [15]), 0.6%; in data set [8] (setting [16]) it was 2.6%.
